Holding throughout (assay type): cell-based
The subject of experiment [1] is E. coli (AmpC). The experiment in a line: microbe, parasite or virus in culture. The note with it: Escherichia coli. The method, then:
(§1) MICs were determined by the broth microdilution method in accordance with Clinical and Laboratories Institute (CLSI) guidelines. In brief, fresh overnight bacterial cultures were suspended in sterile saline, and adjusted to a 0.5 McFarland turbidity standard. Bacterial suspensions were then diluted in cation adjusted Mueller-Hinton Broth (MHB II; BBL) to yield a final inoculum of approximately 5×10^5 colony-forming units (CFU)/mL. A master plate of antibiotics was prepared at a concentration equivalent to hundred-fold the highest desired final concentration in 100% dimethyl sulfoxide (DMSO). The master antibiotic plate was then diluted by serial twofold dilution with a multichannel pipette. The resulting dilution series of compounds were diluted 1:10 with sterile water or a solution of beta-lactamase inhibitor prepared at a concentration equivalent to eleven-fold the desired final concentration in deionized water leading to a 10% DMSO final concentration. A volume of 10 μL of the drug dilution series was transferred to 96-well assay plates. Assay plates were inoculated with 90 μL of bacterial suspensions and incubated at 35° C. for 20 hrs. The assay plates were read using a microtiter plate reader (Molecular Devices) at 600 nm as well as by visual observation with a reading mirror. The lowest concentration of the compound that prevented visible growth was recorded as the MIC. Performance of the assay was monitored by testing aztreonam against laboratory quality control strains in accordance with guidelines of the CLSI.
(§2) Synergy or potentiation of beta-lactam antibiotics through inhibition of Q-lactamases was assessed against an isogenic panel of E. coli strains, each expressing a unique beta-lactamase, and against clinical strains.
The gene encoding AmpC was PCR amplified from the genome of strain P. aeruginosa PAO1 (NB52019) (GenBank ID U5R279) using primer pair E252 (gccCTCGAGggcgaggccccggcggatcgc) (SEQ ID NO: 17) and E253 (tgaGAATTCtcagcgcttcagcggcacct) (SEQ ID NO: 18).
The PCR products were then digested with XhoI and EcoRI and ligated into similarly digested plasmid pAH63-pstS(BlaP). Plasmid pAH63-pstS(BlaP) is a derivative of plasmid pAH63 (J Bacteriol: 183(21): 6384-6393) made by cloning the TEM-1 (bla) promoter and signal peptide encoding region from plasmid pBAD (J Bacteriol. 1995 July 177(14):4121-30) into plasmid pAH63. This fragment was PCR amplified from pBAD using primer pair E192 (ttcaCTGCAGtgaacgttgcgaagcaacggC) (SEQ ID NO:19) and E194 (TCGAggatcctcgagagcaaaaacaggaaggcaaaatgccg) (SEQ ID NO:20), digested with PstI and BamHI and inserted into similarly digested plasmid pAH63. Therefore, expression of beta-lactamases from pAH63-pstS(BlaP) based constructs is constitutive and the signal sequence is provided to direct these proteins to the periplasm. Plasmid pAH63 based vectors are used for insertion into the genome in single copy, however, to provide higher expression levels to allow more sensitive detection of the susceptibility of compounds to the expressed beta-lactamases, the expression inserts contained in these vectors were moved to the replicative multicopy vector pBAD-Kan (J Bacteriol. 1995 July 177(14):4121-30). To accomplish this, the inserts encompassing the beta-lactamase genes, with the associated TEM promoter and signal sequences, were PCR amplified from their corresponding vectors using primer E268 (ccgTCTAGAcggatggcctttttgcgtttc) (SEQ ID NO:21) and E202 (aatcGAATTCttactgaccattaacgcccaagc) (SEQ ID NO:22) for the KPC2 construct, E204 (aatcGAATTCttaacgctgccagtgctcaatc) (SEQ ID NO:23) for the SHV-12 construct and E203 (aatcGAATTCttacagaccgtcggtgacaatc) (SEQ ID NO:24) for the CTX-M-15 construct. These fragments were then digested with XbaI and EcoRI, and each was inserted into pBAD18-kan that had been digested with the same enzymes to generate multicopy vectors expressing KPC-2, SHV-12 and CTX-M-15, respectively. […]

Experiment [2] concerns K. pneumoniae NB29323 (CTX-M-15, OXA-48, VEB-1). The conditions noted are these: aztreonam alone. The method, then:
as §1, §2

Experiment [3] deals with K. pneumoniae NB29082 (KPC-2). The experiment in a line: Potentiation of piperacillin in beta-lactam resistant clinical isolate. The method, then:
as §1, §2

Experiment [4] relates to Enterobacter cloacae NB25055 (CMY-2). The experiment is described as above. As for the experimental part:
as §1, §2

Experiment [5] concerns S. aureus NB01437 (BLA+). The experiment is described as above. As for the experimental part:
as §1, §2

In experiment [6] the test system is E. coli (OXA-18). The experiment in a line: microbe, parasite or virus in culture. The method, then:
as §1, with “MIC.” for “MIC. Performance of the assay was monitored by testing aztreonam against laboratory quality control strains in accordance with guidelines of the CLSI.”
as §2
(§3) Construction of E. coli isogenic strains, NB27273-CDY0105 (OXA-18) and NB27273-CDY0048 (TEM-10). […] The gene encoding OXA-18 was then digested with XhoI and EcoRI and inserted into this vector, from which the gene for GIM-1 had been removed with XhoI and EcoRI.
(§4) These final vectors for expression of OXA-18 and TEM-10 were transformed into BW25113 pspB to generate strains NB27273-CDY0105 (expressing OXA-18) and NB27273-CDY0048 (expressing TEM-10).

Experiment [7] concerns E. coli (CTX-M-15). In words: microbe, parasite or virus in culture. The note with it: Escherichia coli, Pip alone, read-out: MIC of piperacillin. As for the experimental part:
as §1, with “MIC.” for “MIC. Performance of the assay was monitored by testing aztreonam against laboratory quality control strains in accordance with guidelines of the CLSI.”
as §2
(§5) Strain NB27273 (BW25113 pspB::Km^r) was obtained from the Keio transposon insertion collection. The strain has the pspB gene replaced by a kanamycin resistance marker (BW25113 pspB::Km^r). This strain was cured of the transposon in pspB via FLP recombinase using published methodology. The resulting strain, BW25113 pspB, was used as a host for multicopy vectors expressing key beta-lactamases. Multicopy plasmids directing constitutive expression of beta-lactamases were established as follows: Synthetic, codon optimized genes encoding E. coli KPC-2, SHV-12 and CTX-M-15 beta-lactamases were made by DNA2.0 (Palo Alto, Calif.). Each of the synthetic fragments were designed to contain NotI and NcoI restriction sites at their termini, allowing ligation into a NotI/NcoI digested pET28a(+) derivative for protein expression. […] The codon optimized nucleotide sequences and relevant primer recognition information is shown below:
(§6) The PCR products were then digested with XhoI and EcoRI and ligated into similarly digested plasmid pAH63-pstS(BlaP). […] Therefore, expression of beta-lactamases from pAH63-pstS(BlaP) based constructs is constitutive and the signal sequence is provided to direct these proteins to the periplasm. […] These fragments were then digested with XbaI and EcoRI, and each was inserted into pBAD18-kan that had been digested with the same enzymes to generate multicopy vectors expressing KPC-2, SHV-12 and CTX-M-15, respectively. These vectors were transformed into BW25113 pspB to generate strains NB27273-CDY0033 (expressing KPC-2), NB27273-CDY0030 (expressing SHV-12), NB27273-CDY0034 (expressing CTX-M-15) and NB27273-CDY0036 (expressing AmpC). The pBAD18-kan vector also contains the TEM promoter region and signal sequence, (but lacks any intact beta-lactamase genes) and was transformed into BW25113 pspB using standard protocols to generate the control strain NB27273-CDY0026.

For experiment [8], the system named is E. coli (KPC-2). The experiment in a line: microbe, parasite or virus in culture. The conditions noted are these: Escherichia coli, read-out: MIC of piperacillin. As for the experimental part: as §1, with “MIC.” for “MIC. Performance of the assay was monitored by testing aztreonam against laboratory quality control strains in accordance with guidelines of the CLSI.”
as §2, §5, §6

The subject of experiment [9] is E. coli (SHV-12). In words: microbe, parasite or virus in culture. The note with it: Escherichia coli, Pip alone, read-out: MIC of piperacillin. As for the experimental part: as §1, with “MIC.” for “MIC. Performance of the assay was monitored by testing aztreonam against laboratory quality control strains in accordance with guidelines of the CLSI.”
as §2, §5, §6

For experiment [10], the system named is E. coli (TEM-10). The experiment in a line: microbe, parasite or virus in culture. The conditions noted are these: Escherichia coli, Pip alone, read-out: MIC of piperacillin. The method, then:
as §1, with “MIC.” for “MIC. Performance of the assay was monitored by testing aztreonam against laboratory quality control strains in accordance with guidelines of the CLSI.”
as §2, §3
From this template DNA, three fragments were generated by PCR using the following primer pairs;
This fragment was then digested with XbaI and EcoRI and inserted into pBAD-kan which was also cut with the same enzymes.
as §4

Where two headings read alike, the source gives them in different places.

As to `C[C@H]1[C@H](NC(=O)/C(=N\OC(C)(C)C(=O)O)c2csc(N)n2)C(=O)N1S(=O)(=O)O` [Aztreonam], the MIC in experiment [1] (read-out: MIC of aztreonam, AZ alone) was determined as 4 µg/mL. The Activity of aztreonam in experiment [2] was over 64 µg/mL.

On to `CCN1CCN(C(=O)N[C@@H](C(=O)N[C@@H]2C(=O)N3C2SC(C)(C)[C@@H]3C(=O)O)c2ccccc2)C(=O)C1=O` (stereo partly drawn) [Piperacillin], for which the figures for the Activity of piperacillin in experiment [3] (piperacillin alone), in experiment [4] (piperacillin alone) and in [5] (piperacillin alone) were over 64 µg/mL, over 64 µg/mL and 64 µg/mL, respectively. The MIC in [1] (Pip alone, read-out: MIC of piperacillin) was over 32 µg/mL; in experiment [6] (Escherichia coli, Pip alone, read-out: MIC of piperacillin) it was over 32 µg/mL; in experiment [7] it was over 32 µg/mL; in experiment [8] it was over 32 µg/mL; in [9], over 32 µg/mL; in experiment [10], over 32 µg/mL.

For `C[C@]1(Cn2ccnn2)[C@H](C(=O)O)N2C(=O)C[C@H]2S1(=O)=O` [Tazobactam], the “Activity of piperacillin with beta-lactamase inhibitor” value in experiment [3] (Pip + BLI at 4 μg/mL) was over 64 µg/mL; in experiment [4] (Pip + BLI at 4 μg/mL), 64 µg/mL; in experiment [5] (Pip + BLI at 4 μg/mL) it was 1 µg/mL. Moreover, the “MIC of piperacillin with beta-lactamase inhibitor” value in experiment [6] (Pip + BLI at 4 μg/mL) turned out to be 8 µg/mL.

These data come from US10065957B2, “Beta-lactamase inhibitors” (Novartis AG, priority 2016, dated 2018).
